{"source": "patent US20230172924A1", "about": "“THERAPEUTIC AGENT FOR BREAST CANCER” (Eisai R&D Management Co., Ltd., priority 2020, published 2023)", "key": {"[1]": {"test_system": "human-derived breast cancer cell line MCF-7-hCYP19A1", "assay": "Cell number (CellTiter Glo 2.0 emission) of MCF-7-hCYP19A1 cells with Compound A and aromatase inhibitors", "type": "cell-based", "conditions": "Compound A 1,000 nmol/L, 7 days culture with androstenedione, FGF2, FGF10, n=3"}, "[2]": {"test_system": "human breast cancer patient-derived tumor (OD-BRE-0438)", "assay": "Antitumor effect of compound A and fulvestrant on OD-BRE-0438 patient-derived tumor subcutaneously transplanted in NOD-SCID mice", "type": "in vivo", "conditions": "fulvestrant 250 mg/kg s.c. days 0 and 7, combination both; for Average tumor volume after starting drug administration, Day 0: Day 0, compound A 25 mg/kg oral once a day; for Average tumor volume after starting drug administration, Day 4: Day 4, compound A 25 mg/kg oral once a day; for Average tumor volume after starting drug administration, Day 7: Day 7, compound A 25 mg/kg oral once a day; for Average tumor volume after starting drug administration, Day 11: Day 11, compound A 25 mg/kg oral once a day; for Average tumor volume after starting drug administration, Day 14: Day 14, compound A 25 mg/kg oral once a day"}, "[3]": {"test_system": "human-derived breast cancer cell line MCF-7-hCYP19A1", "assay": "Antitumor effect of compound A and letrozole on subcutaneously transplanted MCF-7-hCYP19A1 tumor in ovariectomized BALB/c nude mice", "type": "in vivo", "conditions": "letrozole 0.01 mg/mouse, or both, oral once a day; for Average tumor volume after starting drug administration, Day 0: Day 0, compound A 25 mg/kg; for Average tumor volume after starting drug administration, Day 4: Day 4, compound A 25 mg/kg; for Average tumor volume after starting drug administration, Day 7: Day 7, compound A 25 mg/kg; for Average tumor volume after starting drug administration, Day 11: Day 11, compound A 25 mg/kg; for Average tumor volume after starting drug administration, Day 14: Day 14, compound A 25 mg/kg"}, "[4]": {"conditions": "Table 4, anastrozole 10,000 nmol/L or both"}, "[5]": {"conditions": "Table 5, anastrozole 2,000 nmol/L or both"}, "[6]": {"conditions": "Table 3, letrozole 2,000 nmol/L or both"}}}
{"smiles": "CC(C)(C#N)c1cc(Cn2cncn2)cc(C(C)(C)C#N)c1", "note": "[Anastrozole, anastrozole]", "values": [{"measurement": "Emission value (count per second)", "setting": "[1]; [4]", "value": "1,443,072 count per second"}, {"measurement": "Emission value (count per second)", "setting": "[1]; [5]", "value": "1,357,941 count per second"}]}
{"smiles": "CNC(=O)n1ccc2cc(Oc3ccnc(NC(=O)c4ccc(C5CCN(CCO)CC5)cc4)c3)c(OCCOC)cc21", "note": "[Compound A, 5-((2-(4-(1-(2-Hydroxyethyl)piperidin-4-yl)benzamide)pyridin-4-yl)oxy)-6-(2-methoxyethoxy)-N-methyl-1H-indole-1-carboxamide]", "values": [{"measurement": "Average tumor volume after starting drug administration, Day 0", "setting": "[2]", "value": 148.6, "unit": "mm^3"}, {"measurement": "Average tumor volume after starting drug administration, Day 4", "setting": "[2]", "value": 192.6, "unit": "mm^3"}, {"measurement": "Average tumor volume after starting drug administration, Day 7", "setting": "[2]", "value": 211.2, "unit": "mm^3"}, {"measurement": "Average tumor volume after starting drug administration, Day 11", "setting": "[2]", "value": 216.5, "unit": "mm^3"}, {"measurement": "Average tumor volume after starting drug administration, Day 14", "setting": "[2]", "value": 264.3, "unit": "mm^3"}, {"measurement": "Emission value (count per second)", "setting": "[1]; [6]", "value": "1,242,509 count per second"}, {"measurement": "Emission value (count per second)", "setting": "[1]; [4]", "value": "1,157,051 count per second"}, {"measurement": "Emission value (count per second)", "setting": "[1]; [5]", "value": "1,157,051 count per second"}, {"measurement": "Average tumor volume after starting drug administration, Day 0", "setting": "[3]", "value": 130.7, "unit": "mm^3"}, {"measurement": "Average tumor volume after starting drug administration, Day 4", "setting": "[3]", "value": 155.5, "unit": "mm^3"}, {"measurement": "Average tumor volume after starting drug administration, Day 7", "setting": "[3]", "value": 182.4, "unit": "mm^3"}, {"measurement": "Average tumor volume after starting drug administration, Day 11", "setting": "[3]", "value": 224.4, "unit": "mm^3"}, {"measurement": "Average tumor volume after starting drug administration, Day 14", "setting": "[3]", "value": 267.5, "unit": "mm^3"}]}
{"smiles": "C[C@]12CC[C@@H]3c4ccc(O)cc4C[C@@H](CCCCCCCCC[S+]([O-])CCCC(F)(F)C(F)(F)F)[C@H]3[C@@H]1CC[C@@H]2O", "note": "(some centres unmarked) [Fulvestrant, fulvestrant]", "values": [{"measurement": "Average tumor volume after starting drug administration, Day 0", "setting": "[2]", "value": 148.7, "unit": "mm^3"}, {"measurement": "Average tumor volume after starting drug administration, Day 4", "setting": "[2]", "value": 172.2, "unit": "mm^3"}, {"measurement": "Average tumor volume after starting drug administration, Day 7", "setting": "[2]", "value": 208.2, "unit": "mm^3"}, {"measurement": "Average tumor volume after starting drug administration, Day 11", "setting": "[2]", "value": 207.4, "unit": "mm^3"}, {"measurement": "Average tumor volume after starting drug administration, Day 14", "setting": "[2]", "value": 237.6, "unit": "mm^3"}]}
{"smiles": "N#Cc1ccc(C(c2ccc(C#N)cc2)n2cncn2)cc1", "note": "[Letrozole, letrozole]", "values": [{"measurement": "Emission value (count per second)", "setting": "[1]; [6]", "value": "1,410,920 count per second"}, {"measurement": "Average tumor volume after starting drug administration, Day 0", "setting": "[3]", "value": 132.4, "unit": "mm^3"}, {"measurement": "Average tumor volume after starting drug administration, Day 4", "setting": "[3]", "value": 147.3, "unit": "mm^3"}, {"measurement": "Average tumor volume after starting drug administration, Day 7", "setting": "[3]", "value": 140.6, "unit": "mm^3"}, {"measurement": "Average tumor volume after starting drug administration, Day 11", "setting": "[3]", "value": 159.6, "unit": "mm^3"}, {"measurement": "Average tumor volume after starting drug administration, Day 14", "setting": "[3]", "value": 162.0, "unit": "mm^3"}]}
